Data set [1] concerns human DCs. In words: IL-10 secretion from human DCs, cytometric bead array. Type of data set: cell-based. On the procedure: IL-10 secretion was measured using a cytometric bead array (BD Biosciences, San Jose, CA). Human DCs were isolated from the peripheral blood mononuclear cells (PBMCs) of two healthy human donors as previously described and treated with increasing concentrations of 12,13 DiHOME (Cayman Chemical, Ann Arbor, MI) solubilized in 0.2% dimethylsulfoxide (DMSO). […] IL-10 concentrations were determined according to the manufacturer's instructions.

For data set [2], the system named is human DCs (CD3-CD19-CD11c+). In words: Human DC maturation by flow cytometry (PPARγ-regulated proteins). Type of data set: cell-based. On the procedure: Human DC maturation was assessed by flow cytometry. PBMCs were isolated from two healthy human donors using Ficoll-Hypaque gradient centrifugation as previously described and cultured for five days in the presence of 20 ng mL^−1 IL-4 and 10 ng mL^−1 GM-CSF. Monocytic DCs (DCs) were defined as CD3-CD19-CD11c+. The DC gating strategy can be found in FIG. 4E.

The subject of data set [3] is human DCs. Kind of data set: Gene expression in human DCs by qPCR. The format is cell-based. Conditions: 130 μM, two days; relative to beta-actin. How it is done:
Gene expression was examined in human DCs. DCs were isolated as described above and treated for two days with 130 μM 12,13 DiHOME. Cells were washed twice in PBS, and RNA was extracted using the RNAqueous™ Micro Kit (Ambion, Foster City, CA). The RT2 First Strand Kit (Qiagen, Germantown, MD) was used to synthesize cDNA, and expression of CD36, CD1a, FABP4, and HADH relative to beta-actin was measured using Power SYBR Green PCR Master Mix (ThermoFisher Scientific, Waltham, MA) and a QuantStudio 6 Real-Time PCR system (ThermoFisher Scientific, Waltham, MA).

The next data set relates to PPARγ. Kind of data set: PPARγ-activated luciferase reporter assay in Raw264.7 cells. The format is cell-based. The conditions noted are these: 24 hours after treatment. How it is done: A modified PPARγ luciferase assay was performed as described in Ye et. al.. A PPRE-luciferase reporter plasmid, PPRE X3-TK-luc from Bruce Spiegelman (Plasmid #1015; Addgene, Cambridge, MA), and a PPARγ overexpression plasmid, pGST-PPARgamma from Bert Vogelstein (Plasmid #16549; Addgene, Cambridge, MA), were ordered from Addgene and purified with the Plasmid Plus Maxi Kit (Qiagen, Germantown, MD). Raw264.7 cells grown in R10 media (Roswell Park Memorial Institute (RPMI) media 1640 with 10% heat-inactivated Fetal Bovine SerμMand 2 mM L-glutamine and 100 U mL^−1 penicillin—streptomycin) were transfected with the PPRE-reporter, PPARγ, and Renilla luciferase plasmid DNA in a 1:20:40 ratio, using 50 ng/well of reporter plasmid DNA. Fugene HD Transfection reagent (Promega, Madison, WI) was combined with plasmid DNA in a 4:1 ratio, and the total volume was brought to 5 μL/well with RPMI. The transfection mixture was gently combined with dilute Raw264.7 cells and plated in black, clear-bottom, 96-well plates at a density of 50,000 cells per well. […] Twenty-four hours after treatment luciferase and Renilla luminescence were measured using the Dual-Glo Luciferase Assay kit (Promega, Madison, WI) on a Cytation 3 plate reader (BioTek Instruments, Winooski, VT).

A short description of data set [4]: Quantification of 12,13 DiHOME in lungs and plasma by LC-MS after peritoneal injection. Conditions: 30 mg kg^−1 peritoneal, vs vehicle. Type of data set: in vivo, mice. How it is done:
For quantification of 12,13 DiHOME in the lungs and plasma, six-week-old female C57B6 mice were purchased from Jackson Laboratories (Sacramento, CA) and treated with 30 mg kg^−1 12,13 DiHOME solubilized in 10% DMSO or vehicle (10% DMSO) by peritoneal injection. Three hours after a single injection mice were sacrificed, and lung tissue and plasma were collected and frozen immediately in liquid nitrogen. 12,13 DiHOME was extracted from tissue and plasma using an established solid phase extraction protocol. In brief, flash frozen tissue was massed and added to a Lysing Matrix E Tube (MP Biomedicals, Santa Ana, CA) containing 1 mL of methanol, 10 μL 0.2 mg mL^−1 BHT/EDTA, and 1.25 ng 12,13 DiHOME-D4 (Cayman Chemical, Ann Arbor, MI) then homogenized as described above. Tissue samples were spun for 10 minutes at 2125×g, and supernatant was transferred to a falcon tube containing 19 mL deionized water to generate a 5% methanol solution. Plasma samples were thawed on ice, and 10 μL 0.2 mg mL^−1 BHT/EDTA and 1.25 ng 12,13 DiHOME-D4 were added to 250 μL of thawed plasma. All samples were extracted using a Waters Oasis HLB Cartridges (60 mg of sorbent, […] particle size; Waters, Milford, MA) as previously described. […]

Data set [5] has as its target transient receptor potential vanilloid 1 (TRPV1) (Homo sapiens, UniProt Q8NER1). The conditions noted are these: ref [15]; cited from earlier work.

SMILES strings stand for the structures.

Sequence of transient receptor potential vanilloid 1 (TRPV1) (Q8NER1 whole entry, species assumed): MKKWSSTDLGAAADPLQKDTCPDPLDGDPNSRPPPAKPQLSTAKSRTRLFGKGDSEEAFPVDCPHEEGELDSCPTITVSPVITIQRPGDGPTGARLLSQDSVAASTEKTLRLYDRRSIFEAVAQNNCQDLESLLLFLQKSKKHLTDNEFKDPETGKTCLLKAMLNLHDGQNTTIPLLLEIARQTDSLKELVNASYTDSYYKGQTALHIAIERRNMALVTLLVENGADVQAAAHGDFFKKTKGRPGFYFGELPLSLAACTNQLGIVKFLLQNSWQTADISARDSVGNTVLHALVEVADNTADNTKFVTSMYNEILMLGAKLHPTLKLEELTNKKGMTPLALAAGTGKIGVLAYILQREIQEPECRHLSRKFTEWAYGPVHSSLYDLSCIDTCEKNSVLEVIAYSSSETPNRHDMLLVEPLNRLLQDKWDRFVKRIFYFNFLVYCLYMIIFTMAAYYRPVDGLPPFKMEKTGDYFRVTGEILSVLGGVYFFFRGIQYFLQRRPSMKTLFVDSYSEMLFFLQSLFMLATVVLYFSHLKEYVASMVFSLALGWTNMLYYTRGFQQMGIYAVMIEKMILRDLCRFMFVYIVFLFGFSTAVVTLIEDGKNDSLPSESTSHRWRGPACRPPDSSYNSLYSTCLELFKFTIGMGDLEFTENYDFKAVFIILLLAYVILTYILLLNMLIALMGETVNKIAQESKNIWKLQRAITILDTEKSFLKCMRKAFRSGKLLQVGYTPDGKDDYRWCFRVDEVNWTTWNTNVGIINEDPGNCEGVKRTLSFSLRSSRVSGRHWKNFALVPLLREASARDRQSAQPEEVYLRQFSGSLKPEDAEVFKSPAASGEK

On to `CCCCCC(O)C(O)C/C=C\CCCCCCCC(=O)O` (stereo not shown) [12,13 DiHOME], for which the “IL-10 secretion 24 hours after treatment” value with human DCs [1] (130 μM, 24 hr) was “significant decreases”. Also, the “IL-10 secretion 48 hours after treatment” value in the data set on human DCs [1] (130 μM, 48 hr) is “significant decreases”. In addition, the “IL-10 secretion from human DCs” value in the data set on human DCs [1] (75, 130, 200 μM, supernatant after 24 hours) is reported as “dose-dependent decrease”. For the same molecule, in data set [2] (high concentrations (200 μM)), the “expression of CD36 on DCs” value is “increase”. For the same molecule, the cell viability result in data set [2] (human DCs, flow cytometry) is given as “did not alter”. In data set [2] (increasing doses), the “expression of CCR7 on DCs” value was “significant decrease”, the “expression of CD1a on DCs” value is “significant decrease” and the “expression of CD80 on DCs” value was “significant decrease”. For the same molecule, in the data set with human DCs [3], the “expression of CD1a (RNA)” value is reported as “significant decrease”, the “expression of CD36 (RNA)” value was “significant increases”, the “expression of FABP4 (RNA)” value is listed as “significant increases” and the “expression of HADH (RNA)” value is listed as “significant increases”. Besides, the “concentrations that lead to PPARγ activation” value in the data set on PPARγ is greater than 50 µM. In addition, in data set [4] (3 hours post-delivery), the “concentration of 12,13 DiHOME in the lungs” value is recorded as “significantly increased”. Moreover, in data set [4] (three hours after injection), the “concentration of 12,13 DiHOME in the plasma” value is recorded as “significantly increased”. For the same molecule, the “action on TRPV1” value in data set [5] is given as “activator”.

The values are drawn from patent publication US12018327B2, “Methods and compositions relating to epoxide hydrolase genes” (The Regents of the University of California, priority 2018, dated 2024).
